The text below walks through data of US9212214B2, “Methods of increasing the expression yield of vitamin K-dependent proteins” (CSL Limited, priority 2009, dated 2015).

Assay [1] concerns gamma carboxylation. The note with it: cell free system; cited from earlier work.
Assay [2] concerns Chinese hamster ovary (CHO) cells secreting Factor IX. The settings on record: cited from earlier work.
Assay [3] concerns CHO-S cells expressing albumin fused Factor VII. Description: Specific activity of albumin-fused Factor VII expressed in bioreactor culture (Experiment 6). It is filed as cell-based, Chinese hamster. The note with it: albumin-fused FVII; 50 ng/ml increased daily to 250 ng/ml; MSB n = 4, rMSB n = 25. The procedure: An albumin fused Factor VII was cloned and expressed in CHO-S cells as described in Thromb. Haemost. 2008 April; 99(4):659-67.
Cultivation of mammalian cells occurred under either batch or fed-batch conditions at a starting volume of 3 liters in a 5 liter bioreactor system. Controlled parameters were temperature (37° C.), pH (7.2), agitation (250 rpm) and dissolved oxygen. The medium used was a commercially available, chemically defined media (CD-CHO, Invitrogen) which was supplemented with MSB or rMSP in a starting concentration of 50 ng/ml. Each day the concentration was increased by 50 ng/ml until on day 5 a maximum concentration of 250 ng/ml was reached, which was then held for the remainder of the cultivation period.
The activity of FVII was determined using a chromogenic assay (COASET® FVII test kit (Chromogenix, 82190063)). The amount of protein was determined via reverse phase HPLC.

For assay [4], the system named is CHO-S cell line expressing rIX-FP. Briefly: Flask productivity assay (Experiment 1): FIX activity, FIX antigen. The settings on record: single addition; for Activity (Factor IX activity) / Antigen (Factor IX antigen): 50 ng/ml, mean of duplicate flasks. In kind it is cell-based, Chinese hamster.
Assay [5] relates to rIX-FP CHO-K1 clone. Description: Reactor fed-batch culture (Experiment 2): rIX-FP activity, antigen, cell growth. The note with it: for Activity (total active produced) / Antigen (total antigen produced) / viable cell densities / growth profile / Ratio (active molecule to antigen): fed-batch; for Activity (total active produced) / Antigen (total antigen produced): Medium A, approx. 4 L; for Activity (total active produced) / Antigen (total antigen produced) / Ratio (active molecule to antigen): up to 192 hour post inoculation; for viable cell densities / growth profile: reduced versus non-reduced MSB. In kind it is cell-based, Chinese hamster. How it is done: The medium used for the propagation was a commercially obtainable serum-free chemically defined medium specifically designed for the production of recombinant proteins in CHO cells: “Medium A”. The clones utilised the Lonza glutamine synthetase (GS) system and were passaged in the absence of glutamine with selection maintained by 25 uM methionine sulfoximine (MSX). In the last culture stage, used for productivity measurement, both glutamine and MSX were not added to the medium.
Vitamin K is essential to the cell for the production of active recombinant Factor IX, due to the Vitamin K-dependent gamma-carboxylation of the molecule. In experiments describing the present invention Vitamin K3 in the form of Menadione sodium bi-sulphate (MSB, Sigma) was chosen as the source of Vitamin K as this form is water soluble and thus readily accessible to the cell. Addition of MSB occurred daily at a concentration of 50 ng/ml.
Due to the inherent unstable nature of the reduced MSB, quantification of exact concentrations of the reduced MSB was not available at the time of experimentation. Therefore all stated concentrations of reduced MSB are calculated values derived from the starting concentration of MSB at the commencement of the reduction process. It is anticipated that the actual reduced MSB concentration is less than the calculated amount due to some small losses occurring through the reduction process.
The reactors were Sartorius/Braun 5 L dished bottom glass reactors, with a single Rushton Impeller for agitation and a ring sparger. All reactor cultures were performed under the following conditions unless otherwise stated.
(§1) Cell counts were performed utilising the Innovartis Cedex automated cell counter in accordance with the manufacturers instructions. Glucose, lactate, ammonia and glutamine assays were performed utilising the Yellow Springs Instruments (YSI) 7100 analyser in accordance with the manufacturers instructions. Off-line determination of dissolved carbon dioxide concentrations were performed using the RapidLab 248 Blood Gas Analyser from Siemens (formerly Bayer) in accordance with the manufacturer's instructions. Antigen assay was performed using an internal procedure ELISA for Quantitation of Factor IX Antigen. The Factor IX Activity assay was performed using the “BIOPHEN FIX” chromogenic FIX test. Sampling was performed daily from the point of inoculation for all assays.
Under reactor fed-batch conditions a rIX-FP CHO-K1 clone was cultivated under the standard conditions. This experiment assessed the cell growth, antigen production and active rIX-FP production from the cell under either MSB addition or reduced MSB addition. The feed utilised in this experiment was glucose based (100 g/l) supplemented with the following amino acids: • ? Asparagine at 21.4 g/L; • ? Cysteine at 5.6 g/L; • ? Aspartic acid at 5 g/L.
The reactor test conditions were Reactor A4 utilising a non-reduced MSB addition and Reactor B4 utilising a reduced MSB addition. In both reactors Medium A was used as described in Example 4.

Assay [6] deals with CHO-K1 clone A5 (rIX-FP). Description: Extended draw-fill reactor culture (Experiment 3): rIX-FP activity, antigen, cell growth. It is filed as cell-based, Chinese hamster. The settings on record: for Ratio / Activity / Antigen: extended draw-fill; for Activity / Antigen: approx. 7 L. The procedure:
as §1
The CHO-K1 clone A5 was cultivated under extended draw-fill conditions with two media, Media A and yet another commercially obtainable serum-free chemically defined medium specifically designed for the production of recombinant proteins in CHO cells: Media C. While comparing the performance of the media, the effect of the addition of MSB or reduced MSB was assessed (Table 5). As with previous experiments the outputs from this investigation were growth parameters of the cell and the production of active rIX-FP molecule and rFIX-FP antigen.

The subject of assay [7] is CHO-S cell line expressing rIX-FP. Briefly: Flask productivity assay (Experiment 1): FIX activity, FIX antigen. It is filed as cell-based, Chinese hamster. The note with it: for Ratio (activity/antigen) / Activity (Factor IX activity) / Antigen (Factor IX antigen): double addition; for Activity (Factor IX activity) / Antigen (Factor IX antigen): 50 ng/ml, mean of duplicate flasks. How it is done:
as §1
The Flask productivity assay was performed as described below.
A CHO-S cell line expressing rIX-FP was used and cultured in an alternative commercially obtainable serum-free chemically defined medium specifically designed for the production of recombinant proteins in CHO cells (“Medium B”) with 8 mM L-glutamine. In the N−1 and N (with N being the last passage number) passage 50 ng/ml MSB was added. Another addition was performed at 48 hours post inoculation. Cultures were inoculated at 2×10^5 viable cells/mL at a 30 mL volume in a 125 mL shake flask, cultured at 37 C, 5% CO2, 125 rpm in a humidified incubator (Multitron, Infors HT). Samples were assayed for cell density, cell viability, rIX-FP activity and antigen content.
Experiment 1 was performed to assess the effect of reduced MSB on culture performance compared to additions of MSB in a flask format. The cells were subjected to the standard flask productivity assay with assays for cell density, Factor IX antigen and Factor IX activity performed.

For the compound `CC1=CC(=O)c2ccccc2C1=O` [menadione, 2-methyl-1,4-naphthoquinone], the “promotion of gamma carboxylation” value in assay [1] was “inactive in promoting gamma carboxylation”.

For the compound vitamin K, the “concentration in cell culture medium at which requirement to elicit active Factor IX reaches saturation” value in assay [2] is 5 µg/mL.

With `CC1(S(=O)(=O)[O-])CC(=O)c2ccccc2C1=O.[Na+]` (stereo not shown) [MSB, Menadione sodium bisulphite, reference compound], the “Specific Activity, Mean” value in assay [3] came to 313.5 IU/mg. Also, in assay [4] (72 hours), the “Ratio (activity/antigen)” value was determined as 0.57, the “Activity (Factor IX activity)” value was found to be 357.5 and the “Antigen (Factor IX antigen)” value was 625.5. Also, in assay [4] (96 hours), the “Ratio (activity/antigen)” value worked out at 0.24, the “Activity (Factor IX activity)” value is recorded as 629.5 and the “Antigen (Factor IX antigen)” value stood at 2573. In addition, the “amount of active rIX-FP” value in assay [5] (fed-batch conditions) stood at 22357 IU. In assay [5], the “Activity (total active produced)” value is 22357 U; the “Antigen (total antigen produced)” value came to 49479 U; the “viable cell densities / growth profile” value was “very similar growth profiles and maximum cell densities”; the “Ratio (active molecule to antigen)” value was found to be 0.45. The “activity values as percent of the reduced MSB addition values” in assay [6] (draw-fill, both media types) is 94-98%. Further, in assay [6] (Medium A), the Ratio is on record as 0.49. In assay [6] (Medium A, 50 ng/ml per day), this compound displayed an Activity of 28864 U and an Antigen of 58987 U. In assay [6] (Medium C), the Ratio stood at 0.52. In assay [6] (Medium C, 50 ng/ml per day), this compound showed an Activity of 23570 U and an Antigen of 45443 U. In assay [7] (72 hours), the “Ratio (activity/antigen)” value stood at 0.96, the “Activity (Factor IX activity)” value was determined as 431.5 and the “Antigen (Factor IX antigen)” value is reported as 451.5. In assay [7] (96 hours), the “Ratio (activity/antigen)” value was 0.56, the “Activity (Factor IX activity)” value was determined as 649 and the “Antigen (Factor IX antigen)” value was determined as 1155.5.

In the case of “Reduced Menadione Sodium Bisulphite [rMSB]”, the “Specific Activity, Mean” value in assay [3] came out at 392.6 IU/mg. Also, in assay [4] (72 hours), the “Ratio (activity/antigen)” value was 0.97, the “Activity (Factor IX activity)” value is 500 and the “Antigen (Factor IX antigen)” value is given as 516. In addition, in assay [4] (96 hours), the “Ratio (activity/antigen)” value was 0.86, the “Activity (Factor IX activity)” value amounted to 1070.5 and the “Antigen (Factor IX antigen)” value came to 1249. In addition, in assay [5] (fed-batch conditions), the “amount of active rIX-FP” value stood at 35444 IU, the antigenic yield came to 38197 IU, the “antigenic yield as percent of the MSB value” was determined as 77% and the “increase in active rIX-FP relative to MSB addition” value is listed as 59%. For the same compound, in assay [5], the “Activity (total active produced)” value stood at 35444 U; the “Antigen (total antigen produced)” value was 38197 U; the “viable cell densities / growth profile” value was “very similar growth profiles and maximum cell densities”; the “Ratio (active molecule to antigen)” value is reported as 0.93. Also, in assay [6] (draw-fill, 50 ng/ml per day), the “cell growth, reduced versus non-reduced MSB” value was “very little difference in relation to cell growth”. The “antigenic material compared to MSB additions” value in assay [6] (draw-fill, Medium A) came out at 78%. In addition, the “antigenic material compared to MSB additions” value in assay [6] (draw-fill, Medium C) is 84%. In addition, the “increase in ratio compared to MSB additions” value in assay [6] (draw-fill, depending on media type) was 19-35%. Further, the Ratio in assay [6] (Medium A) is reported as 0.66. Further, in assay [6] (Medium A, 50 ng/ml per day), the Activity is 30580 U and the Antigen came to 46254 U. Besides, the Ratio in assay [6] (Medium C) came out at 0.62. For the same compound, in assay [6] (Medium C, 50 ng/ml per day), the Activity is on record as 24052 U and the Antigen is 38528 U. Moreover, in assay [7] (72 hours), the “Ratio (activity/antigen)” value is reported as 0.93, the “Activity (Factor IX activity)” value was determined as 477 and the “Antigen (Factor IX antigen)” value amounted to 514.5. Besides, the “activity compared with non-reduced MSB additions” value in assay [7] (72 hr) was “slightly higher than non-reduced MSB additions”. Besides, in assay [7] (96 hours), the “Ratio (activity/antigen)” value came out at 0.71, the “Activity (Factor IX activity)” value is on record as 902 and the “Antigen (Factor IX antigen)” value was 1271. For the same compound, in assay [7] (96 hr), the “activity compared with MSB addition” value is “greater activity results than that obtained for the MSB addition”.

`Cc1cc(O)c2ccccc2c1O` [reduced menadione]: the “promotion of gamma carboxylation” value in assay [1] is “inactive in promoting gamma carboxylation”.
